As a reminder, the IC50 is the concentration that inhibits the measured activity by half. Read a low IC50 as higher potency.

The target of one assay is Prothrombin (Homo sapiens, UniProt P00734). Kind of assay: Inhibition of thrombin.
The next assay addresses Plasminogen (Homo sapiens, UniProt P00747). Kind of assay: Inhibition of plasmin.
Assay [1] is described as follows: Selectivity ratio of IC50 for tissue factor/factor 7a to IC50 for trypsin.
The target of assay [2] is Coagulation factor VII/tissue factor (Homo sapiens, UniProt P08709). Kind of assay: Inhibition of tissue factor/factor 7a. Format: protein-complex assay.
For another assay, the target named is Coagulation factor X (Homo sapiens, UniProt P00742).

Structures are written as SMILES. Bounds are passed on as bounds.

Sequence of Coagulation factor X (P00742 41-179 limits assumed): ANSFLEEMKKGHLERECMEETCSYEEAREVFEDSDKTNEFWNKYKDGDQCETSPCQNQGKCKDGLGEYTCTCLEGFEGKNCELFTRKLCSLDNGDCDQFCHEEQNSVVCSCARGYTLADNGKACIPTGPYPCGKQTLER
Sequence of Coagulation factor X (P00742 235-488 limits assumed): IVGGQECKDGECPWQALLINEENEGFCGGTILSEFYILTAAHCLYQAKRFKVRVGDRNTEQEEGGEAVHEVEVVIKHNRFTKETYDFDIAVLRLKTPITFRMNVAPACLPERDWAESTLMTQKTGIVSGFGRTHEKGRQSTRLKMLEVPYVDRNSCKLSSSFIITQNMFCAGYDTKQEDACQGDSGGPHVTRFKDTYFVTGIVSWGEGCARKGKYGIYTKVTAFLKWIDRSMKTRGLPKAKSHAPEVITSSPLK
Sequence of Plasminogen (P00747 97-580 limits assumed): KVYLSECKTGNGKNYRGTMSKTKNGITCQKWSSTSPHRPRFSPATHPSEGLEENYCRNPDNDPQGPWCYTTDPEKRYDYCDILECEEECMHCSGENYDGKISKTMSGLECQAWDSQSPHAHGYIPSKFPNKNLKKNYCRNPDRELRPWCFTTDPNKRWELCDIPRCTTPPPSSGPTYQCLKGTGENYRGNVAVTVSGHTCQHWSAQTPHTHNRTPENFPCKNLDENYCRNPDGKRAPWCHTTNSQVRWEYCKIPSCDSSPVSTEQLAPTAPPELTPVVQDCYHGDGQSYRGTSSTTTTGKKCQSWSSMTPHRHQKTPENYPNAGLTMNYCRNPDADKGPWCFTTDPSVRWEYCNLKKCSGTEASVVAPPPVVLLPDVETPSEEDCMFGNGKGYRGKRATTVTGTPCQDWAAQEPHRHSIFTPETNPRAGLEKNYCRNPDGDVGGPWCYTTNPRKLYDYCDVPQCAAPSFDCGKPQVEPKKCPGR
Sequence of Plasminogen (P00747 581-810 limits assumed): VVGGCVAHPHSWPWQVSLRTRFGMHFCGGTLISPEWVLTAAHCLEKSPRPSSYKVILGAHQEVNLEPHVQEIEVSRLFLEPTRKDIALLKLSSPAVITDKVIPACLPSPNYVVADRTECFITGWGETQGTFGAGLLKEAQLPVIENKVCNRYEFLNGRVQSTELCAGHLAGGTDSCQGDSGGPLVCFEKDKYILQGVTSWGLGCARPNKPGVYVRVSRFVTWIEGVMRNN
Sequence of Coagulation factor VII/tissue factor (P08709 61-212 limits assumed): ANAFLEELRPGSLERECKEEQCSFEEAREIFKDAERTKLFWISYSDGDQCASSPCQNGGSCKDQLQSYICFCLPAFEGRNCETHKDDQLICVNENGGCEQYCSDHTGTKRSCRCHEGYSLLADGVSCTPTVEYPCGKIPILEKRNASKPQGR
Sequence of Coagulation factor VII/tissue factor (P08709 213-466 limits assumed): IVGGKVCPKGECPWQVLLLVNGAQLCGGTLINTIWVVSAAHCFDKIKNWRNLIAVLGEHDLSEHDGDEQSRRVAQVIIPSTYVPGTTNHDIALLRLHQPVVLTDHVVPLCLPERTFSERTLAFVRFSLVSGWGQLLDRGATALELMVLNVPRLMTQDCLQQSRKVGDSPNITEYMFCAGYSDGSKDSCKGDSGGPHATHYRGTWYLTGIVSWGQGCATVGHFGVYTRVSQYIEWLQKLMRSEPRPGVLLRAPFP
Sequence of Coagulation factor VII/tissue factor (P13726 33-295 partner limits assumed): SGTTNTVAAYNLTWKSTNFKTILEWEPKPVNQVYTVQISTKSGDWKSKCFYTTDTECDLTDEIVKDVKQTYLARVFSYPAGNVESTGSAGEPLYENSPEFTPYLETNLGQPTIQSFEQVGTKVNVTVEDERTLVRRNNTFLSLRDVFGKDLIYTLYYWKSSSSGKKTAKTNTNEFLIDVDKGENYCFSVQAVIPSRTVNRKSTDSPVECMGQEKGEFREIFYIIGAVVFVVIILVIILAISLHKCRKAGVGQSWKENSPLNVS

In the case of `CC#Cc1ccc(-c2ccc(C(=O)NCC(C)C)cc2C(=O)O)c(C(=O)Nc2ccc(C(=N)N)cc2)c1`, the IC50 at Prothrombin came to 50000 nM; on Plasminogen it was 127 nM; in assay [2], 34 nM; on Coagulation factor X it was 5220 nM. Further, the Ratio IC50 in assay [1] came to 48.8.

As to `CC(C)CNC(=O)c1ccc(-c2ccc(Cc3ccccc3)cc2C(=O)Nc2ccc(C(=N)N)cc2)c(C(=O)O)c1`, the IC50 on Prothrombin amounted to 8510 nM; against Plasminogen, 656 nM; in assay [2] it was 21 nM; against Coagulation factor X, 1750 nM. Further, the Ratio IC50 in assay [1] amounted to 26.9.

On to `CCCc1ccc(-c2ccc(C(=O)NCC(C)C)cc2C(=O)O)c(C(=O)Nc2ccc(C(=N)N)cc2)c1`, for which the IC50 against Prothrombin was 39600 nM; on Plasminogen, more than 5000 nM; in assay [2] it was 92 nM; on Coagulation factor X it was 46000 nM. The Ratio IC50 in assay [1] came to 450.

With `CC(C)CNC(=O)c1ccc(-c2ccc(-c3ccoc3)cc2C(=O)Nc2ccc(C(=N)N)cc2)c(C(=O)O)c1`, the IC50 on Prothrombin worked out at 16100 nM; against Plasminogen, 252 nM; in assay [2], 11 nM; against Coagulation factor X it was 120 nM. The Ratio IC50 in assay [1] stood at 42.6.

For the compound `CC(C)CNC(=O)c1ccc(-c2ccc(-c3cocc3CO)cc2C(=O)Nc2ccc(C(=N)N)cc2)c(C(=O)O)c1`, the IC50 was more than 50000 nM on Prothrombin, 554 nM on Plasminogen, 20 nM in assay [2] and 230 nM at Coagulation factor X. The Ratio IC50 in assay [1] stood at 114.

Regarding `C#Cc1ccc(-c2ccc(C(=O)NCC(C)C)cc2C(=O)O)c(C(=O)Nc2ccc(C(=N)N)cc2)c1`, the IC50 was 50200 nM against Prothrombin, 1000 nM against Plasminogen, 25 nM in assay [2] and 8140 nM at Coagulation factor X. Moreover, the Ratio IC50 in assay [1] is 115.

Turning to `C=C(CCO)c1ccc(-c2ccc(C(=O)NCC(C)C)cc2C(=O)O)c(C(=O)Nc2ccc(C(=N)N)cc2)c1`, the IC50 on Prothrombin was 56200 nM; on Plasminogen, 358 nM; in assay [2] it was 29 nM; against Coagulation factor X, 11300 nM. The Ratio IC50 in assay [1] amounted to 75.5.

In the case of `CC(C)CNC(=O)c1ccc(-c2ccc(-c3cscc3CO)cc2C(=O)Nc2ccc(C(=N)N)cc2)c(C(=O)O)c1`, the IC50 stood at 63100 nM against Prothrombin, 60 nM against Plasminogen, 9 nM in assay [2] and 130 nM against Coagulation factor X. Besides, the Ratio IC50 in assay [1] was 56.7.

As to `CC(C)=CCc1ccc(-c2ccc(C(=O)NCC(C)C)cc2C(=O)O)c(C(=O)Nc2ccc(C(=N)N)cc2)c1`, the IC50 against Prothrombin stood at 13000 nM; at Plasminogen it was 308 nM; in assay [2], 45 nM; against Coagulation factor X, 27000 nM. For the same compound, the Ratio IC50 in assay [1] is 21.1.

As for `CC(C)CNC(=O)c1ccc(-c2ccc(-c3cscc3CN=[N+]=[N-])cc2C(=O)Nc2ccc(C(=N)N)cc2)c(C(=O)O)c1`, the IC50 came to 157000 nM against Prothrombin, 242 nM at Plasminogen, 9 nM in assay [2] and 50 nM on Coagulation factor X. Besides, the Ratio IC50 in assay [1] came to 133.

For the compound `COc1ccc(-c2ccc(C(=O)NCC(C)C)cc2C(=O)O)c(C(=O)Nc2ccc(C(=N)N)cc2)c1`, the IC50 against Prothrombin amounted to 14900 nM; on Plasminogen it was 14400 nM; in assay [2], 30 nM; on Coagulation factor X, 6630 nM. For the same compound, in assay [1], the Ratio IC50 is 25.3.

In the case of `CC(C)CNC(=O)c1ccc(-c2ccc(-c3occc3CO)cc2C(=O)Nc2ccc(C(=N)N)cc2)c(C(=O)O)c1`, the IC50 was 50000 nM on Prothrombin, 1070 nM at Plasminogen, 24 nM in assay [2] and 150 nM against Coagulation factor X. For the same compound, in assay [1], the Ratio IC50 was 32.1.

With `CC(C)CNC(=O)c1ccc(-c2ccc(-c3ccsc3)cc2C(=O)Nc2ccc(C(=N)N)cc2)c(C(=O)O)c1`, the concentration for half-maximal inhibition (IC50) against Prothrombin came to 15000 nM; on Plasminogen, 35 nM; in assay [2], 10 nM; at Coagulation factor X it was 40 nM. In addition, the Ratio IC50 in assay [1] was determined as 37.7.

Consider `CC(C)CNC(=O)c1ccc(-c2ccc(Cc3cccs3)cc2C(=O)Nc2ccc(C(=N)N)cc2)c(C(=O)O)c1`, for which the IC50 amounted to 42100 nM at Prothrombin, 913 nM against Plasminogen, 11 nM in assay [2] and 8150 nM against Coagulation factor X. Besides, the Ratio IC50 in assay [1] was found to be 127.

Regarding `C=C(C)c1ccc(-c2ccc(C(=O)NCC(C)C)cc2C(=O)O)c(C(=O)Nc2ccc(C(=N)N)cc2)c1`, the IC50 against Prothrombin worked out at 17900 nM; on Plasminogen it was 70 nM; in assay [2], 13 nM; on Coagulation factor X, 1170 nM. The Ratio IC50 in assay [1] came out at 40.8.

The values are drawn from ChEMBL document CHEMBL1137759, “Design, parallel synthesis, and crystal structures of biphenyl antithrombotics as selective inhibitors of tissue factor FVIIa complex. Part 1: Exploration of S2 pocket pharmacophores” (Bioorg Med Chem, 2009).
